Laboratory results: US20260263401A1, “Topical composition and uses thereof” (UNIVERSIDADE DE COIMBRA, priority 2022, published 2026)
“And” between values parts separate entries of the source, which are not always exact repeats. Equal values may be shown once. “Also recorded” adds a separate entry of the source.

Legend:
[1] = tested on: Poly-L-Lysine Hydrobromide (PLL); assay: Lysine depletion protocol (in chemico reactivity towards lysine); details: 20 mM molecule incubated 1 h with DNFB 5 mM; FIG. 1B
Description: In an embodiment, a Lysine depletion Protocol—“in house development protocol” was applied, comprising: Dissolve 0.01 g of Poly-L-Lysine Hydrobromide (PLL) (Sigma, P1399) in 100 mL of purified water (use within 2 months). Filter the solution with a syringe filter to remove aggregates and store ate 4° C. for further use. For plate coating add 50 μL of PLL to each well of the 96 black bottom glass microplate (Corning ref 45806) and incubate for 2 hours at 37° C. or 24 h at room temperature.
In an embodiment, after the coating procedure, the contents of the plate were discarded into a sink and the plate is washed 3 times with 200 μL of PBS per well. Blot any residual PBS by firmly tapping the plate upside-down on absorbent paper. 20 mM of each potential ACD inhibitory molecule/mixture is added and incubated with 70 μl of the strong skin sensitizer 1-fluoro-2,4-dinitrobenzene (DNFB) (5 mM in DMSO) for 1h; the mixture was transferred to the plate and incubated for 24 h at 37° C. The contents of the plate were discarded and the wells were washed 3 times with PBS as previously reported. 70 μL of 10 μM Fluorescein-5-Ex-Succinimidyl Ester (FSE) were added and incubated for 1 h in the dark at 37° C. The contents of the plate were discarded; the wells were washed 3 times with PBS as previously stated. The fluorescence was read in a microplate reader (Exc 485±20 nm and Em 530±30 nm). Synergy™ HT plate reader (BioTek Instruments, Inc., Winooski, VT, USA): Bottom read with a sensibility of 50. […]
In an embodiment, Reference control A is made with the solvent DMSO, with incubation with FSE and is used to calculate the maximum fluorescence or absorbance in the presence of LYS. […]
In an embodiment, Test chemicals were pre-weighted into 1.5 mL test tubes and dissolved in 1 mL of DMSO to prepare a 100 mM solution immediately before use. The weight of the test chemical to be added to the vial was determined based on the molecular weight and purity. […]
In an embodiment, for the data Analysis the percentage of peptide depletion is determined by using the following formula: […]

[2] = Cysteine depletion protocol (glutathione in solution depletion); details: FIG. 1A
Description: In an embodiment, Cysteine depletion Protocol-Glutathione in solution depletion protocol—“in house development protocol” was applied: • In a test tube, mix 10 μL of the 100 mM test chemical solution with 190 μL of GSH solution (20 μL of GSH 2 mM and 170 μL of PB) and Incubated at RT, protected from light, for 1 h in a tube roller (40 rpm) • […]; [test chemical]f=5 mM; [GSH]f=0.2 mM; • 20 μL of Ellman's reagent 10 mM, a thiol sensitive colorimetric reagent was added. Mix gently by tapping manually in the test tube and incubate for 10 min at RT, in a test tube rotator protected from light; • The absorbance was read in a microplate reader at 405 nm. • Note: For each assay, a fresh Glutathione stock of 50 mM (0.00768 g in 500 μL of PBS) and the second stock of 2 mM in PBS (2 μL of the […] solution+48 μl of PBS) were freshly prepared.
In an embodiment, Control and Test Chemical Preparation was applied: • DNFB is used as the positive control for the assay in every assay run. For the negative control LA is used and for the reference control three types of reference controls are included in each study: • Reference control A is made with the solvent DMSO, with incubation with Ellman's reagent and is used to calculate the maximum fluorescence or absorbance in the presence of CYS containing peptides. […]
Test Chemicals: In an embodiment, test chemicals were pre-weighted into 1.5 mL test tubes and dissolved in 1 mL of DMSO to prepare a 100 mM solution immediately before use. The weight of the test chemical to be added to the vial is determined based on the molecular weight and purity. […]
In an embodiment, for the data analysis, the percent depletion of peptide is determined by using the following formula: […]

THP-1 cells = assay: Maturation of THP-1 cells assessed by up-regulation of co-stimulatory molecules CD86 and CD54; details: for CD54 and CD86 maturation levels, pre-incubation before allergen: pre-incubation (20 mM) before 24 h DNFB (8 μM) and MI (100 μM); for levels of CD54 and CD86, allergen alone: 24 h, DNFB 8 μM, MI 100 μM
Description: In an embodiment, the THP-1 cell line has been used as a dendritic cell (DC) surrogate for skin sensitizers hazard, following the OECD guidelines. […] The THP-1 cells are stabilized overnight at a density of 5×10^5 cells/mL. On the day after, cells are seeded in 12-well plates at a density of 8×10^5 cells/well and incubated for 24 h with medium (control), Dimethyl sulfoxide (DMSO) (allergens solvent) or with 20 mM of each inhibitor of ACD (NAC), (LYS) or mixture (NAC+LYS). In addition, sensitization is induced with the strong skin allergen 1-fluoro-2,4-dinitrobenzene (DNFB) (8 μM) or Methylisothiazolinone (MI) (100 μM) for 24 h. At the end of the incubation period, cells are washed with ice-cold PBS supplemented with 1% (v/v) inactivated FBS, centrifuged at 300×g for 5 min at 4° C. and pellets are dissolved in ice-cold PBS supplemented with 1% (v/v) inactivated FBS. Then, 100 µL of the cell suspension are incubated with, or without, 3 μL of anti-human CD54 antibody (#353111, Biolegend, San Diego, CA, USA) or anti-human CD86 (#305414, Biolegend, San Diego, CA, USA) antibody for 30 min at 4° C. […] A total of 1×10^4 living cells are considered for analysis. The CD86 and CD54 levels are analyzed by flow cytometry with the acquisition channels FL1 and FL4. Based on the geometric mean fluorescence intensity (MFI), the relative fluorescence intensity (RFI) of CD86 and CD54 for positive control cells and chemical-treated cells is calculated according to the following equation: […]

[3] = tested on: NRF2 dependent genes in HaCaT; assay: Expression of NRF2 dependent genes in keratinocytes (real time PCR); assay type: cell-based, human; details: 6 h
Description: HaCaT is cultured with Dulbecco's Modified Eagle's Medium (DMEM) (Sigma-Aldrich, St. Louis, MO, USA), supplemented with 10% (v/v) heat-inactivated fetal bovine serum (FBS), 1% (v/v) antibiotic solution (100 U/mL penicillin, 100 μg/mL streptomycin) (Gibco, Carlsbad, CA, USA), 3.7 g/L sodium bicarbonate and 1 mM sodium pyruvate (Sigma-Aldrich, St. Louis, MO, USA).
In an embodiment, HaCaT cells are seeded in 6-well plates at a density of 6×10^5 cells/well and allowed to adhere for 24 h. After that, cells are incubated for 24 h with exposure medium (control) or treated with 10 mM of NAC, 10 mM of LYS, 8 μM of DNFB, 100 μM of MI, or 10 mM+DNFB, 10 mM LYS+DNFB and 10 mM+MI, 10 mM LYS+MI for 6 h or 24 h.
In an embodiment, total RNA (ribonucleic acid) is extracted from HaCaT treated cells, as previously described by our group [37], with NZYol reagent, according to the manufacturer's instructions and its concentration is determined by OD260 measurement using a NanoDrop spectrophotometer (Thermo Scientific, Wilmington, DE, USA). Samples are stored in RNA Storage Solution at −80° C. until use. Total RNA (1 g) is reverse-transcribed using the iScript Select cDNA Synthesis Kit, and real-time reverse transcriptase-polymerase chain reaction (RT-PCR) reactions are performed, in duplicate for each sample, on a Bio-Rad MyCycler iQ5 (Hercules, CA, USA), as previously described by our group [38].
In an embodiment, after amplification, a threshold is set for each gene and Ct values are calculated for all samples. Gene expression changes are analyzed using Bio-Rad CFX Maestro 1.1 system software (Hercules, CA, USA). The results are normalized using Hprt-1 as the reference gene. Primer sequences are designed using Beacon Designer software version 7.7 (Premier Biosoft International, Palo Alto, CA, USA) and thoroughly tested.

BALB/c mice = assay: Murine local lymph node assay (BRDU-LLNA, flow cytometry); details: for skin ulcerations, allergen alone (mice ears): topical on ears, days 1-3
Description: In vivo validation of the efficacy of the hydrogel enriched with the best mixture of molecules, to avoid the development of skin sensitization using the murine local lymph node assay (LLNA)
This event can be confirmed using the in vivo test Local lymph node assay (LLNA), which is evaluated by flow cytometry (FCM) using the OECD Guideline for the testing of chemicals: BRDU (bromodeoxyuridine) ELISA (enzyme linked immunosorbent assay) or FCM 442B, as previously described and revised on OECD TG 442B [41].
During the entire procedure, the daily weight record is made to assess the welfare of the animals. […]
In an embodiment, on day 5, animals are intraperitoneally injected with 100 μl of BrdU mixture (20 mg/mL) in PBS. […] LNCs are stained with trypan blue (Sigma) and counted using a hemocytometer. LNCs (1.5×10^6 cells/mL) are prepared using a commercially FITC BrdU Flow Kit-Catalog No. 559619 (BD Biosciences, San Jose, CA, USA) and further analyzed by flow cytometry using a BD Accuri™ C6 Flow Cytometer (BD Biosciences, San Jose, CA, USA). Stimulation index (SI) values for each sample are calculated using the formula described in the OECD test guideline (TG 442B) [41].

[4] = tested on: SkinEthic™ Reconstructed Human Epidermis (RHE); assay: Skin irritation, SkinEthic Reconstructed Human Epidermis (RHE), MTT assay, OECD TG 439; assay type: cell-based; details: 42 min exposure, 42 h post-incubation, three tissue replicates, relative to PBS control, <50% = irritant, sulfate
Description: In an embodiment, skin irritation is evaluated using the SkinEthic™ Reconstructed Human Epidermis (RHE) model (EPISKIN Laboratories, Lyon, France), in compliance with the OECD Test Guideline No. 439-In Vitro Skin Irritation: Reconstructed
Human Epidermis Test Method. The RHE model consists of a differentiated three-dimensional epi-dermal tissue of human keratinocytes grown on a 0.5 cm^2 surface inert polycarbonate filter in a chemically defined medium at the air-liquid interface. Two specific media provided by EPISKIN are used: maintenance and growth media. […] The experiment also includes other inserts treated with PBS or 5% (w/v in water) SDS used as negative and positive controls, respectively. […] Tissue viability is assessed using the MTT (3-(4,5-dimethylthiazol-2-yl)-2,5-diphenyl-2H-tetrazolium bromide) assay. For that, tissues are incubated with MTT (1 mg/mL) at 37° C. for 3h; then the MTT solution was removed, and formazan crystals were dissolved with isopropanol. The absorbance was measured at 570 nm using a SpectraMax Plus 384 Spectrophotometer. […] If the tissue viability value is <50%, the samples are classified as irritants.

[5] = chelating agent; cited from earlier work
[6] = incubated before DNFB, vs DNFB alone
[7] = incubated before MI, vs MI alone

N[C@@H](CS)C(=O)O [CYS, cysteine]
reactivity of the strong allergen DNFB towards lysine (Lysine depletion) [1]: significantly inhibit
reactivity of the strong allergen DNFB towards cysteine (Glutathione depletion) [2]: significantly inhibit
CD54 and CD86 maturation levels, pre-incubation before allergen (THP-1 cells): significantly decrease
HMOX1 expression [3, 6]: significantly decrease
TRX1 expression [3, 6]: significantly decrease

O=C(O)C(S)C(S)C(=O)O (stereo not shown) [DMSA, 2,3 dimercaptosuccinic acid]
CD54 and CD86 maturation levels, pre-incubation before allergen (THP-1 cells): significantly decrease

O=[N+]([O-])c1ccc(F)c([N+](=O)[O-])c1 [DNFB, 1-fluoro-2,4-dinitrobenzene, reference compound]
presence of eosinophils in the ears (histology) (BALB/c mice; DNFB treated ears, FIG. 13B (gel 100 mM)): presence of eosinophils
skin ulcerations, allergen alone (mice ears) (BALB/c mice): induce skin ulcerations
levels of CD54 and CD86, allergen alone (THP-1 cells): significantly increases; also recorded: increase

N[C@@H](CCC(=O)N[C@@H](CS)C(=O)NCC(=O)O)C(=O)O [GSH, Glutathione]
CD54 and CD86 maturation levels, pre-incubation before allergen (THP-1 cells): significantly decrease
HMOX1 expression [3, 6]: significantly decrease
SOD1 expression [3, 6]: significantly decrease
HMOX1 expression [3, 7]: significantly decrease

N[C@@H](CCS)C(=O)O [HOMO, homocysteine]
CD54 and CD86 maturation levels, pre-incubation before allergen (THP-1 cells): significantly decrease
HMOX1 expression [3, 6]: significantly decrease
SOD1 expression [3, 6]: significantly decrease
TRX1 expression [3, 7]: significantly decrease

CSCC[C@H](N)C(=O)O [MET, methionine]
CD54 and CD86 maturation levels, pre-incubation before allergen (THP-1 cells): significantly decrease
GST expression [3, 7]: significantly decrease
NQO1 expression [3, 7]: significantly decrease

Cn1sccc1=O [MI, Methylisothiazolinone, reference compound]
skin ulcerations, allergen alone (mice ears) (BALB/c mice): induce skin ulcerations
levels of CD54 and CD86, allergen alone (THP-1 cells): significantly increases; also recorded: increase

CCCCCCCCCCCCOS(=O)(=O)[O-].[Na+] [SDS, sodium dodecyl sulfate]
Tissue viability (%) ([4]; listed as SDS (5%)): 1.41% and 1.44% and 1.62%
Tissue viability (%) [4]: significantly decrease

O=C(O)CN(CCN(CC(=O)O)CC(=O)O)CCN(CC(=O)O)CC(=O)O [diethylenetriaminepentaacetic]
prevention of nickel, chromium, and copper dermatitis [5]: can prevent
